Data reported in patent publication US7001920B2, “Formate salt of O-desmethyl-venlafaxine” (Wyeth, priority 2002, dated 2006).

How the values were obtained:
[1] = Rat intestinal perfusion test (in situ), effective intestinal permeability Peff; format: in vivo; conditions: for Peff ODV Fumarate: 50 μg/ml in pH 6.8 perfusion buffer
Protocol: O-desmethyl venlafaxine formate was evaluated for oral absorption characteristics. The rat intestinal perfusion model was used.
Rat Intestinal Perfusion Test
(§1) The rat intestine perfusion technique is a direct way to measure the regional absorption properties of a test compound in the gastrointestinal tract. Rat intestinal permeability coefficient (Peff) can be used to predict human in vivo oral absorption of passively absorbed compounds. Fagerholm, M. Johansson, and H. Lennernäs, ? Comparison between permeability coefficients in rat and human jejunum”, Pharm. […] Other characteristics such as formulable Maximum Absorbable Dose (MAD), FDA Biopharmaceutical Classification, etc. can also be estimated.
Perfusion buffer (PB) consisted of KC1 (5.4 mM), NaC1 (48 mM), Na2HPO4 (28 mM), NaH2PO4 (43 mM), mannitol (35 mM), polyethylene glycol (PEG)-4000 (0.1%, w/v), glucose (10 mM). The pH was adjusted to 6.8 with NaOH and osmolarity was adjusted to 290+10 mOsm/l with 1.0 M NaC1. Before the experiment, ^14C-PEC-4000 (0.02 μCi/mL), 3H-mannitol (0.025 μCi/mL), metoprolol (20 μg/mL), and ODV formate or fumarate (50 μg/mL) were added.
Rats used in this study were Charles River CD males, ranging in weight from approximately 300–350 grams.
Metoprolol (a well-absorbed and passively transported compound) was used as a standard and tested simultaneously along with the ODV compounds. Glucose (a well-absorbed and actively transported compound) was used to monitor the physiological functionality of the intestinal barriers. ^14C-labeled PEG-4000 was used as a non-absorbable marker to describe the water flux across the intestinal wall. ^3H-labeled mannitol was used as a paracellularly transported marker to indicate the integrity of the intestinal tight junctions.
All chemicals were of analytical grade. After each experiment, all the analytical assays were performed promptly. For isotope determinations, 0.5 mL of perfusate sample containing ^14C PEG-4000 and ^3H-mannitol was mixed with 5 mL of scintillation cocktail. Radioactivity was counted in a liquid scintillation counter (Wallac 1409). Glucose concentration was determined by the glucose oxidase method (Biochemistry Analyzer). Metoprolol and the ODV compounds were analyzed by HPLC-UV/Vis (HP-1100 with a diode-array detector), using a YMC AQ 120μ, 5μ, 150×4.6 mm column and step gradient mobile phase containing water/0.1% TFA and acetonitrile. The ODV compounds and metoprolol were detected at 226 and 272 nm UV wavelength, respectively. Blank perfusate was assayed to evaluate the interference at these chromatographic conditions.
The perfusions were performed in three intestinal sections of anesthetized rats: duodenum-jejunum, ileum, and colon. The lengths of the segments were approximately 10–12 cm for small intestine segments and 5–6 cm for colon segments. An inflow cannula was inserted at the proximal end and an outflow cannula was inserted at the distal end. Perfusate was pumped through the segment at 0.19 mL/min, and collected at 20, 40, 55, 70, 85 and 100 minutes.
ODV formate or fumarate was added to the perfusion working buffer at a concentration of 50 μg/mL, which is approximately equivalent to a 200 mg human dose. The disappearance rates of ODV compound, metoprolol, and glucose were determined from each collection interval by comparing to the initial compound solution remaining in the syringe at the end of the 100 minutes. This is to correct for any losses due to binding to the syringe or tubing. Meanwhile, drug concentration in perfusate samples were corrected for water influx/efflux, which was computed, based on ^14C-PEG-4000 concentration changes.
Recovery of ^14C-PEG-4000 was determined to provide information on the integrity of the perfused intestinal segment: % PEGrec=(ΣPEGout/ΣPEGin)*100
Overall ^14C-PEG-4000 recovery was calculated and any data for which the individual recovery fell outside of the range of 96%–103% was excluded from the data set. […]

[2] = Human fraction of dose absorbed (Fa) predicted from rat Peff; conditions: for human in vivo Fa (fraction of dose absorbed), estimated: small intestine
Excerpt: as §1
The fraction of dose absorbed, Fa, in human is currently predicted from (Fagerholm, M. ibid: Fa=100*(1−e^−(2*(Peff,rat+β)*(tres/r)) where […] are the correction factors, tres is the residence time in human small intestine; and r is the radius of the human small intestine. Results Rat Jejunal Perfusion Results Site-Specific Absorption of ODV Formate

Solubility in water = format: physicochemical; conditions: 26 °C, room temperature (about 25 to 27° C.)
Excerpt: High solubility and high oral absorption are desireable characteristics of a drug, making this salt form of O desmethyl venlafaxine a particularly useful form of O-desmethyl venlafaxine.

[3] = in vivo, i.p.; cited from earlier work
Norepinephrine reuptake = conditions: in vitro; read-out: Inhibition of amine reuptake (IC50): Norepinephrine; cited from earlier work
Serotonin reuptake = conditions: in vitro; read-out: Inhibition of amine reuptake (IC50): Serotonin; cited from earlier work
Dopamine reuptake = conditions: in vitro; read-out: Inhibition of amine reuptake (IC50): Dopamine; cited from earlier work
D2 = conditions: cited from earlier work
Cholinergic = conditions: cited from earlier work
Adrenergic a = conditions: cited from earlier work
Histamine H1 = conditions: cited from earlier work
Opiate = conditions: cited from earlier work
[4] = male, CD, in vivo, 100 min, 50 μg/mL, pH 6.8

In the case of `COCCc1ccc(OCC(O)CNC(C)C)cc1` (centres unmarked) [Metoprolol], the “Peff Metoprolol” value ([1]; colon, metoprolol 20 μg/mL tested simultaneously with ODV formate) is reported as 0.583 ± 0.087 10^−5 cm/sec, the “Peff Metoprolol” value ([1]; colon, metoprolol 20 μg/mL tested simultaneously with ODV fumarate) is reported as 11 10^−5 cm/sec and the “Peff Metoprolol” value ([1]; ileum, metoprolol 20 μg/mL tested simultaneously with ODV formate) is reported as 3.22 ± 0.07 10^−5 cm/sec. For the same compound, the “Peff Metoprolol” value ([1]; ileum, metoprolol 20 μg/mL tested simultaneously with ODV fumarate) was 5.3 10^−5 cm/sec, the “Peff Metoprolol” value ([1]; jejunum, metoprolol 20 μg/mL tested simultaneously with ODV formate) was 2.50 ± 0.11 10^−5 cm/sec and the “Peff Metoprolol” value ([1]; jejunum, metoprolol 20 μg/mL tested simultaneously with ODV fumarate) was 1.78 ± 0.93 10^−5 cm/sec.
With `CN(C)CC(c1ccc(O)cc1)C1(O)CCCCC1.O=CO` (centres unmarked) [ODV formate, O-desmethylvenlafaxine formate] the “Peff as percent of metoprolol's Peff value” [1, 4] was “about 12%”, the “Peff values in the small intestine” value [1, 4] was 1.34–2.18 10^−5 cm/sec and the “human in vivo Fa (fraction of dose absorbed), estimated” value [2] was “about 80%”. For the same compound, the solubility (Solubility in water) was > 425 mg/mL.
For `CN(C)CC(c1ccc(O)cc1)C1(O)CCCCC1` (centres unmarked) [O-desmethylvenlafaxine, 1-[2-(dimethylamino)-1-(4-phenol)ethyl]cyclohexanol], the “Reversal of Reserpine-Induce Hypothermia (minimum effect)” value [3] is listed as 3 mg/kg i.p, the IC50 (Norepinephrine reuptake) is listed as 1160 nM and the IC50 (Serotonin reuptake) is listed as 180 nM. For the same compound, the IC50 (Dopamine reuptake) was 13400 nM, the “Affinity for Various Neuroreceptors (% inhibition at 1 uM): D2” value (D2) was 6% and the “Affinity for Various Neuroreceptors (% inhibition at 1 uM): Cholinergic” value (Cholinergic) was 7%. For the same compound, the “Affinity for Various Neuroreceptors (% inhibition at 1 uM): Adrenergic a” value (Adrenergic a) was 0%, the “Affinity for Various Neuroreceptors (% inhibition at 1 uM): Histamine H1” value (Histamine H1) was 0% and the “Affinity for Various Neuroreceptors (% inhibition at 1 uM): Opiate” value (Opiate) was 7%.
With `CN(C)CC(c1ccc(O)cc1)C1(O)CCCCC1.O=C(O)/C=C/C(=O)O` (centres unmarked) [ODV fumarate] the “Absorption in the colon” value ([1]; colon) was “no measurable absorption”, the “Peff ODV Fumarate / Peff Metoprolol” value ([1]; colon) was 0 and the “Peff ODV Fumarate” value ([1]; colon) was 0 10^−5 cm/sec. The “Peff ODV Fumarate / Peff Metoprolol” value ([1]; ileum) was 0.19 ± 0.06, the “Peff ODV Fumarate” value ([1]; ileum) was 0.678 ± 0.295 10^−5 cm/sec and the “Peff ODV Fumarate / Peff Metoprolol” value ([1]; jejunum) was 0.09. The “Peff ODV Fumarate” value ([1]; jejunum) was 0.245 10^−5 cm/sec, the “Peff values in the small intestine” value ([1]; small intestine (jejunum to ileum)) was 0.24–0.68 10^−5 cm/sec and the “in vivo Fa (fraction of dose absorbed), estimated” value ([2]; colon) was 0%. The “human in vivo Fa (fraction of dose absorbed), estimated” value [2] was 33–45%.
